{"source": "paper PMC8230281", "about": "“Improving the Pharmacological Properties of Ciclopirox for Its Use in Congenital Erythropoietic Porphyria” (Journal of Personalized Medicine, 2021)", "key": {"[1]": {"test_system": "cellular models of the disease, obtained from HEK cells by CRISPR/Cas9 editing", "assay": "Equivalent cellular studies in cellular models of CEP (data not shown)", "assay_type": "cell-based", "source_text": "We first tested the derivatives on different cellular models of the disease, obtained from HEK cells by CRISPR/Cas9 editing. The selected mutations (UROIIIS^C73R and UROIIIS^P248Q) result in destabilized proteins and severe phenotypes. […] Thus, the reported activity for CPXpom is attributed to a proper hydrolysis of the compound into the active species."}, "[2]": {"test_system": "mouse model of the disease (UROIIIS^P248Q/P248Q)", "assay": "Oral gavage for 30 days in mouse model of CEP", "assay_type": "in vivo", "conditions": "UROIIIS^P248Q/P248Q mice; for reduction in total UROI levels in serum: oral gavage, after 30 days, equivalent dose", "protocol": "The compound ciclopirox (CPX, 6-cyclohexyl-1-hydroxy-4-methyl-2(1H)-pyridinone) was purchased from Santa Cruz Biotechnology (sc-204688), and phosphorylated ciclopirox (CPXpom, O-phosphoryl-methylen-6-cyclohexyl-1-hydroxy-4-metyl-2(1H)-Pyridinone) was synthetized by Charnwood Molecular Ltd. PD of CPX was studied in HEK CRISPR Cas UROIIIS-C73R and UROIIIS-P248Q cell lines. Briefly, 60 µM dose of CPX and phosphorylated CPX was administrated for 30 min and 1, 2, and 4 h of exposition. Then, the cells were counted and harvested. Samples were treated by the same protocol for the porphyrin extraction. Mouse experiments. For the PK experiments and for each bolus administration method 10 WT ICR (CD-1®) outbred mice (Envigo) were used. Serum was collected after the administration at 1, 2, 4, 6 (7), 12, and 24 h. At 48 (36) h, the mice were sacrificed. Triplicates were collected for each data point. Urine samples were collected at the same interval. In the PD experiments, the concentration of porphyrins was measured from circulating blood. Blood samples were extracted from the submandibular vein every week, and mice were weighed before each extraction. Mice were treated with oral CPX by gavage to evaluate CPX dose efficiency. […] All work performed with animals was approved by the competent authority (Diputación Foral de Bizkaia) following European and Spanish directives. The CIC bioGUNE Animal Facility is accredited by AAALAC Intl.\n(§1) Murine blood samples were obtained from the submandibular vein and collected in ethylenediaminetetraacetic acid tubes; samples were aliquoted and stored in a freezer at −80 °C. […] The samples were then analyzed by HPLC.\n(§2) Porphyrins from cell lines were separated by HPLC analysis on a ODS Hypersil C18 column (5 µm, 3 mm × 200 mm; Thermo Scientific, Waltham, MA, US) in a HPLC chromatograph (Shimadzu, Long Beach, CA, US). […] All analyses were performed at 20 °C, and porphyrins were detected by fluorescence with an excitation wavelength 405 nm and emission wavelength 610 nm. […]"}, "[3]": {"test_system": "HEK CRISPR Cas UROIIIS-C73R cell line", "assay": "URO I levels in HEK CRISPR/Cas9 cellular model of CEP (UROIIIS-C73R), HPLC", "assay_type": "cell-based", "conditions": "UROIIIS^C73R HEK cells; 60 µM; 30 min to 4 h", "protocol": "(§3) The compound ciclopirox (CPX, 6-cyclohexyl-1-hydroxy-4-methyl-2(1H)-pyridinone) was purchased from Santa Cruz Biotechnology (sc-204688), and phosphorylated ciclopirox (CPXpom, O-phosphoryl-methylen-6-cyclohexyl-1-hydroxy-4-metyl-2(1H)-Pyridinone) was synthetized by Charnwood Molecular Ltd. PD of CPX was studied in HEK CRISPR Cas UROIIIS-C73R and UROIIIS-P248Q cell lines. Briefly, 60 µM dose of CPX and phosphorylated CPX was administrated for 30 min and 1, 2, and 4 h of exposition. Then, the cells were counted and harvested. Samples were treated by the same protocol for the porphyrin extraction. Mouse experiments. For the PK experiments and for each bolus administration method 10 WT ICR (CD-1®) outbred mice (Envigo) were used. […] In the PD experiments, the concentration of porphyrins was measured from circulating blood. […]\nas §1, §2"}, "[4]": {"test_system": "HEK CRISPR Cas UROIIIS-P248Q cell line", "assay": "URO I levels in HEK CRISPR/Cas9 cellular model of CEP (UROIIIS-P248Q), HPLC", "assay_type": "cell-based", "conditions": "UROIIIS^P248Q HEK cells; 60 µM", "protocol": "as §3, §1, §2"}, "[5]": {"assay": "GI toxicity in WT mice after administration of CPX or CPXpom", "assay_type": "in vivo", "conditions": "for GI toxicity: 100 mg/kg; for macroscopic inflammation of the gut: mice, Figure 1"}, "[6]": {"assay": "Serum CPX pharmacokinetics in mice after single IV or oral dose, quantified by NMR", "assay_type": "in vivo", "protocol": "as §3, with “used. Serum was collected after the administration at 1, 2, 4, 6 (7), 12, and 24 h. At 48 (36) h, the mice were sacrificed. Triplicates were collected for each data point.” for “used.”\nNMR data were collected at on an 800-MHz Bruker Avance III spectrometer equipped with a cryoprobe and on a 600-MHz Bruker Avance III US2 spectrometer. […] Metabolic quantification was carried out at peaks’ integral against the added internal reference compound. […]\nNon-compartmental serum and urine pharmacokinetic parameters for CPXpom and CPX were determined using SimBiology module in MATLAB. […]"}, "[7]": {"design": "method as in PMID 7028047", "conditions": "rats; 4 weeks; doses up to 300 mg/kg; cited from earlier work"}, "[8]": {"design": "method as in PMID 7197542", "conditions": "oral; 1 mg/kg rats, 10-15 mg/kg dogs; cited from earlier work"}, "[9]": {"design": "method as in PMID 2989308", "conditions": "weak acidic N-hydroxyl group of the 1-hydroxy-2(1H)-pyridones; cited from earlier work"}, "murine models of CEP": {"test_system": "murine models of CEP", "design": "method as in PMID 30232228", "conditions": "cited from earlier work"}}}
{"smiles": "NC(Cn1ccc(=O)c(O)c1)C(=O)O", "note": "(stereo not shown) [mimosine]", "values": [{"measurement": "activity in cellular models of CEP", "setting": "[1]", "value": "no activity"}]}
{"smiles": "Cc1cc(C2CCCCC2)n(OCOP(=O)(O)O)c(=O)c1", "note": "[CPXpom, O-phosphoryl-methylen-6-cyclohexyl-1-hydroxy-4-metyl-2(1H)-Pyridinone]", "values": [{"measurement": "reduction in total UROI levels in serum", "setting": "[2]", "value": 5, "unit": "%"}, {"measurement": "GI toxicity", "setting": "[2]; orally by gavage for 30 days", "value": "no GI toxicity was observed"}, {"measurement": "levels of the toxic by-product URO I", "setting": "[3]", "value": "significantly reduced"}, {"measurement": "levels of the toxic by-product URO I", "setting": "[4]", "value": "significantly reduced"}, {"measurement": "GI toxicity", "setting": "[5]; WT mice, oral (gavage)", "value": "does not result in GI toxicity"}, {"measurement": "macroscopic inflammation of the gut", "setting": "[5]", "value": "no macroscopic inflammation"}, {"measurement": "circulating concentration of CPXpom (NMR spectrum of serum)", "setting": "[6]; after CPXpom administration", "value": "below the detection limit"}]}
{"smiles": "Cc1cc(C2CCCCC2)n(O)c(=O)c1", "note": "[ciclopirox-olamine]", "values": [{"measurement": "gastric findings", "setting": "[7]", "value": "gastric irritation and chronic gastritis"}, {"measurement": "elimination in urine (time)", "setting": "[8]", "value": "3 to 6", "unit": "h"}]}
{"smiles": "Cc1cc(C2CCCCC2)n(O)c(=O)c1", "note": "[CPX, 6-cyclohexyl-1-hydroxy-4-methyl-2(1H)-pyridinone]", "values": [{"measurement": "reduction in total UROI levels in serum", "setting": "[2]", "value": 40, "unit": "%"}, {"measurement": "levels of the toxic by-product URO I", "setting": "[3]", "value": "significantly reduced"}, {"measurement": "levels of the toxic by-product URO I", "setting": "[4]", "value": "significantly reduced"}, {"measurement": "pK", "setting": "[9]", "value": 7}, {"measurement": "macroscopic inflammation of the gut", "setting": "[5]", "value": "Macroscopic inflammation can be observed"}, {"measurement": "GI toxicity", "setting": "[5]; mouse, in vivo, po", "value": "results in GI toxicity"}, {"measurement": "splenomegaly", "setting": "murine models of CEP; indirect measure of reduction in circulating porphyrins", "value": "reduced splenomegaly"}, {"measurement": "levels of the toxic porphyrins, particularly URO I and COPRO I", "setting": "murine models of CEP; liver, red blood cells, and urine", "value": "significant decrease"}, {"measurement": "CPXFREE", "setting": "[6]; Table S3, serum, IV, dose 10 mg/kg, CPXfree = CPXtot − CPXglu", "value": "< 21.4", "unit": "%"}]}
